Measurements taken from PubChem BioAssay AID248 (DTP/NCI, 2004).
“And” between values parts separate entries of the source, which are not always exact repeats. Identical values can stand only once. Toxic doses and inconclusive results are not listed. Cut-off read from the data, not from the text of the source: active = T/C of 150% or more; inactive = T/C below 125%.

Test system: L1210 leukemia ip in BDF1 mice, survival T/C
Assay: NCI In Vivo Anticancer Drug Screen. Data for tumor model L1210 Leukemia (intraperitoneal) in B6D2F1 (BDF1) mice
Conditions: endpoint: mean survival time, higher = longer survival
How it was run: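 Tumor cells were implanted, animals were treated, and survival was followed. The result divides the treated measurement by the vehicle-control measurement.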

[1] = dose: 100.0 mg/kg/injection, schedule: Q04DX002 (ip), vehicle: saline with Tween-80
[2] = dose: 200.0 mg/kg/injection, schedule: Q04DX002 (ip), vehicle: saline with Tween-80
[3] = dose: 400.0 mg/kg/injection, schedule: Q04DX002 (ip), vehicle: saline with Tween-80
[4] = dose: 100.0 mg/kg/injection, schedule: Q01DX009 (ip), vehicle: saline with Tween-80
[5] = dose: 200.0 mg/kg/injection, schedule: Q01DX009 (ip), vehicle: saline with Tween-80
[6] = dose: 400.0 mg/kg/injection, schedule: Q01DX009 (ip), vehicle: saline with Tween-80
[7] = dose: 100.0 mg/kg/injection, schedule: Q04DX003 (ip), vehicle: saline
[8] = dose: 200.0 mg/kg/injection, schedule: Q04DX003 (ip), vehicle: saline
[9] = dose: 400.0 mg/kg/injection, schedule: Q04DX003 (ip), vehicle: saline

Measured: T/C

CC(=O)OC1C=C2CCC3C(CC(=O)C4(C)C3CC3OC34C(C)=O)C2(C)CC1 (stereo not drawn)
inactive: dose: 12.5 mg/kg/injection, schedule: Q04DX002 (ip), vehicle: saline 98 % of control | dose: 25.0 mg/kg/injection, schedule: Q04DX002 (ip), vehicle: saline 102 % of control | dose: 50.0 mg/kg/injection, schedule: Q04DX002 (ip), vehicle: saline 109 % of control

CCOC(=O)C1CSC(C)(C(=O)OCC)N1 (stereo not drawn)
inactive: dose: 100.0 mg/kg/injection, schedule: Q01DX001 (ip), vehicle: carboxymethylcellulose (CMC) 100 % of control | dose: 200.0 mg/kg/injection, schedule: Q01DX001 (ip), vehicle: carboxymethylcellulose (CMC) 96 % of control | dose: 400.0 mg/kg/injection, schedule: Q01DX001 (ip), vehicle: carboxymethylcellulose (CMC) 105 % of control

CCOC(=O)C1C(C)NC(C)C(C(=O)OCC)C1c1ccccc1Cl (stereo not drawn)
inactive: dose: 100.0 mg/kg/injection, schedule: Q01DX009 (ip), vehicle: Klucel (hydroxypropylcellulose) (HPC) 97 % of control | dose: 200.0 mg/kg/injection, schedule: Q01DX009 (ip), vehicle: Klucel (hydroxypropylcellulose) (HPC) 98 % of control | dose: 400.0 mg/kg/injection, schedule: Q01DX009 (ip), vehicle: Klucel (hydroxypropylcellulose) (HPC) 93 % of control

FC(F)(F)c1nccc(=S)[nH]1
inactive: dose: 50.0 mg/kg/injection, schedule: Q01DX Z (ip), vehicle: methylcellulose (MC) 98 % of control | dose: 100.0 mg/kg/injection, schedule: Q01DX Z (ip), vehicle: methylcellulose (MC) 90 % of control

CC(Cc1ccc2c(c1)OCO2)[N+](=O)[O-] (stereo not drawn)
inactive: dose: 150.0 mg/kg/injection, schedule: Q04DX003 (ip), vehicle: saline with Tween-80 102 % of control | dose: 300.0 mg/kg/injection, schedule: Q04DX003 (ip), vehicle: saline with Tween-80 100 % of control

C=C(C)C1C/C(=N\O)C(C)/C(=N/O)C1 (stereo not drawn)
inactive: [1] 100 % of control | [2] 96 % of control | [3] 93 % of control

CCOC(=O)/C(Cc1cnc2ccccc2n1)=N\O
inactive: [4] 94 % of control | dose: 100.0 mg/kg/injection, schedule: Q04DX003 (ip), vehicle: saline with Tween-80 105 % of control | [5] 96 % of control | dose: 200.0 mg/kg/injection, schedule: Q04DX003 (ip), vehicle: saline with Tween-80 100 % of control | [6] 100 % of control | dose: 400.0 mg/kg/injection, schedule: Q04DX003 (ip), vehicle: saline with Tween-80 105 % of control

CCC(=O)C(CC)c1ccccc1OC (stereo not drawn)
inactive: [4] 95 % of control | [7] 94 % of control | [5] 95 % of control | [8] 97 % of control | [6] 108 % of control | [9] 97 % of control

Cc1ccc(S(=O)(=O)N2CCCCC2)cc1
inactive: [7] 91 % of control | [8] 96 % of control | [9] 97 % of control

CC(=O)Nc1ccc(/C=C(\C#N)c2ccc([N+](=O)[O-])cc2)cc1
inactive: dose: 100.0 mg/kg/injection, schedule: Q04DX002 (ip), vehicle: gum acacia 95 % of control | dose: 200.0 mg/kg/injection, schedule: Q04DX002 (ip), vehicle: gum acacia 103 % of control | dose: 400.0 mg/kg/injection, schedule: Q04DX002 (ip), vehicle: gum acacia 95 % of control

O=C(O)C1=CCCc2ccc(Br)cc21
inactive: dose: 50.0 mg/kg/injection, schedule: Q01DX009 (ip), vehicle: saline with Tween-80 93 % of control | [4] 95 % of control | [5] 98 % of control

OB(O)C1=CC(c2ccccc2)(c2ccccc2)N=C1
inactive: dose: 100.0 mg/kg/injection, schedule: Q01DX001 (ip), vehicle: Klucel (hydroxypropylcellulose) (HPC) 103 % of control | dose: 200.0 mg/kg/injection, schedule: Q01DX001 (ip), vehicle: Klucel (hydroxypropylcellulose) (HPC) 94 % of control | dose: 400.0 mg/kg/injection, schedule: Q01DX001 (ip), vehicle: Klucel (hydroxypropylcellulose) (HPC) 92 % of control

CNc1cnc(Cl)nc1Cl
inactive: dose: 50.0 mg/kg/injection, schedule: Q01DX001 (ip), vehicle: acetone 98 % of control | dose: 100.0 mg/kg/injection, schedule: Q01DX001 (ip), vehicle: acetone 93 % of control | dose: 200.0 mg/kg/injection, schedule: Q01DX001 (ip), vehicle: acetone 97 % of control

CC(=O)OCCOC(C)=O
inactive: dose: 100.0 mg/kg/injection, schedule: Q01DX001 (ip), vehicle: saline 103 % of control | dose: 200.0 mg/kg/injection, schedule: Q01DX001 (ip), vehicle: saline 97 % of control | dose: 400.0 mg/kg/injection, schedule: Q01DX001 (ip), vehicle: saline 94 % of control

CCCN(CCC)C(=S)[S-].CCCN(CCC)C(=S)[S-].[Zn]
inactive: dose: 100.0 mg/kg/injection, schedule: Q04DX003 (ip), vehicle: saline sonified 100 % of control | dose: 200.0 mg/kg/injection, schedule: Q04DX003 (ip), vehicle: saline sonified 91 % of control | dose: 400.0 mg/kg/injection, schedule: Q04DX003 (ip), vehicle: saline sonified 86 % of control

Cc1ccc(-c2nn[nH]n2)cc1
inactive: [7] 97 % of control | [8] 96 % of control | [9] 96 % of control

CCCCOCCOC(=O)C1OC1(C)c1ccccc1 (stereo not drawn)
inactive: [1] 100 % of control | [2] 102 % of control | [3] 106 % of control

Cc1ccc2c(c1)NP(=O)(c1ccccc1)S2 (stereo not drawn)
inactive: dose: 25.0 mg/kg/injection, schedule: Q04DX002 (ip), vehicle: saline with Tween-80 89 % of control | dose: 50.0 mg/kg/injection, schedule: Q04DX002 (ip), vehicle: saline with Tween-80 92 % of control | [1] 102 % of control and 89 % of control
